The results in this text go back to patent US20120214760A1, “TREATMENT OF URINARY TRACT INFECTIONS WITH ANTIBACTERIAL AMINOGLYCOSIDE COMPOUNDS” (Achaogen, Inc., priority 2009, published 2012).

In assay [1] the test system is E. coli ATCC 25922 (AECO001). Description: MIC, CLSI broth microdilution. In kind it is cell-based. The following applies: Escherichia coli. The method, boiled down: (§1)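 CLSI M7-A7 broth microdilution in Mueller Hinton Broth using two-fold compound serial dilutions. Inoculum was prepared from the previous day's agar colonies at a final 5×10^5 CFU/mL. Plates were incubated at 35° C for 20 hours in ambient air.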
On the technique in general: In broth dilution the organism is exposed to a series of concentrations in liquid medium.

In assay [2] the test system is P. aeruginosa ATCC 27853 (APAE001). Description: MIC, CLSI broth microdilution. In kind it is cell-based. The settings on record: for MIC: Pseudomonas aeruginosa. The method, boiled down: as §1
Setting [3] is: ATCC25922, read-out: MIC AECO001, Table 1, AECO001 is ATCC25922.
[4] abbreviates: ATCC27853, read-out: MIC APAE001, Table 1, APAE001 is ATCC27853.
Setting [5] is: ATCC25922, Table 2, read-out: MIC E. coli.
The mark [6] stands for this setting: Table 1, AECO001 is ATCC25922, read-out: MIC AECO001.
The mark [7] stands for this setting: ATCC27853, Table 2, read-out: MIC P. aeruginosa.

≈ marks a conversion by molar mass, not a printed value. Where two headings read alike, the source gives them in different places.

What is called MIC is the smallest concentration in the dilution series that meets the test's criterion for growth inhibition. As for `CN[C@@H]1[C@@H](O)[C@@H](O[C@@H]2[C@@H](O)[C@H](O[C@H]3OC(CN)=CC[C@H]3NCC3CCNC3)[C@@H](N)C[C@H]2NC(=O)[C@@H](O)CCN)OC[C@]1(C)O` (stereo partly drawn) [Example 84, 2′-(Methyl-pyrrolidin-3-yl)-1-(4-amino-2(S)-hydroxy-butyryl)-sisomicin], the MIC in assay [1] (setting [3]) is less than 1 µg/mL; in assay [2] (setting [4]), 1 to 16 µg/mL (≈ 1.58 to 25.3 µM).
The matching figures for `CN[C@@H]1[C@@H](O)[C@@H](O[C@@H]2[C@@H](O)[C@H](O[C@H]3OC(CN)=CC[C@H]3NCC3CCCN3)[C@@H](N)C[C@H]2NC(=O)[C@@H](O)CCN)OC[C@]1(C)O` (stereo partly drawn) [Example 85, 2′-(Methyl-pyrrolidin-2-yl)-1-(4-amino-2(S)-hydroxy-butyryl)-sisomicin]: less than 1 µg/mL and 1 to 16 µg/mL (≈ 1.58 to 25.3 µM).
The matching figures for `CNCC(=O)N[C@@H]1CC=C(CN)O[C@@H]1O[C@H]1[C@H](O)[C@@H](O[C@H]2OC[C@](C)(O)[C@H](NC)[C@H]2O)[C@H](NC(=O)[C@@H](O)CCN)C[C@@H]1N` [Example 86, 2′-(N-Methyl-amino-acetyl)-1-(4-amino-2(S)-hydroxy-butyryl)-sisomicin]: 1 to 16 µg/mL (≈ 1.61 to 25.8 µM) and 1 to 16 µg/mL (≈ 1.61 to 25.8 µM).
Taken in the same sequence, the figures for `CN[C@@H]1[C@@H](O)[C@@H](O[C@@H]2[C@@H](O)[C@H](O[C@H]3OC(CN)=CC[C@H]3NC(=O)CN)[C@@H](N)C[C@H]2NC(=O)[C@@H](O)CCN)OC[C@]1(C)O` [Example 87, 2′-(2-Amino-acetyl)-1-(4-amino-2(S)-hydroxy-butyryl)-sisomicin] were 1 to 16 µg/mL (≈ 1.65 to 26.4 µM) and 1 to 16 µg/mL (≈ 1.65 to 26.4 µM).
`CN[C@@H]1[C@@H](O)[C@@H](O[C@@H]2[C@@H](O)[C@H](O[C@H]3OC(CN)=CC[C@H]3NC(=O)C(C)N)[C@@H](N)C[C@H]2NC(=O)[C@@H](O)CCN)OC[C@]1(C)O` (stereo partly drawn) [Example 88, 2′-(2-Amino-propionyl)-1-(4-amino-2(S)-hydroxy-butyryl)-sisomicin]: the MIC in assay [1] (setting [3]) and in assay [2] (setting [4]) was 1 to 16 µg/mL (≈ 1.61 to 25.8 µM) throughout.
With `CN[C@@H]1[C@@H](O)[C@@H](O[C@@H]2[C@@H](O)[C@H](O[C@H]3OC(CN)=CC[C@H]3NC(=O)C(O)CN)[C@@H](N)C[C@H]2NC(=O)[C@@H](O)CCN)OC[C@]1(C)O` (stereo partly drawn) [Example 89, 2′-(3-Amino-2-hydroxy-propionyl)-1-(4-amino-2(S)-hydroxy-butyryl)-sisomicin], the figures for the MIC in assay [1] (setting [3]) and in assay [2] (setting [4]) were less than 1 µg/mL and 1 to 16 µg/mL (≈ 1.57 to 25.2 µM), respectively.
The matching figures for `CN[C@@H]1[C@@H](O)[C@@H](O[C@@H]2[C@@H](O)[C@H](O[C@H]3OC(CN)=CC[C@H]3NC(=O)C3CCCN3)[C@@H](N)C[C@H]2NC(=O)[C@@H](O)CCN)OC[C@]1(C)O` (some centres unmarked) [Example 90]: less than 1 µg/mL and 1 to 16 µg/mL (≈ 1.55 to 24.8 µM).
For the molecule `CN[C@@H]1[C@@H](O)[C@@H](O[C@@H]2[C@@H](O)[C@H](O[C@H]3OC(CN)=CC[C@H]3NCCCN)[C@@H](N)C[C@H]2NC(=O)[C@@H](O)CCN)OC[C@]1(C)O` [Example 91, 2′-(3-Amino-propyl)-1-(4-amino-2(S)-hydroxy-butyryl)-sisomicin], the MIC in assay [1] (setting [3]) and in assay [2] (setting [4]) was less than 1 µg/mL each time.
As to `CN[C@@H]1[C@@H](O)[C@@H](O[C@@H]2[C@@H](O)[C@H](O[C@H]3OC(CN)=CC[C@H]3NC(=O)CC3CNCCO3)[C@@H](N)C[C@H]2NC(=O)[C@@H](O)CCN)OC[C@]1(C)O` (stereo partly drawn) [Example 92, 2′-(Morpholin-2-yl-acetyl)-1-(4-amino-2(S)-hydroxy-butyryl)-sisomicin], the figures for the minimal inhibitory concentration (MIC) in assay [1] (setting [3]) and in assay [2] (setting [4]) were less than 1 µg/mL and greater than 16 µg/mL, respectively.
As for `CN[C@@H]1[C@@H](O)[C@@H](O[C@@H]2[C@@H](O)[C@H](O[C@H]3OC(CN)=CC[C@H]3NS(=O)(=O)CCN)[C@@H](N)C[C@H]2NC(=O)[C@@H](O)CCN)OC[C@]1(C)O` [Example 93, 2′-(2-Amino-ethyl-sulfonamide)-1-(4-amino-2(S)-hydroxy-butyryl)-sisomicin], the MIC was less than 1 µg/mL in assay [1] (setting [3]) and 1 to 16 µg/mL (≈ 1.52 to 24.4 µM) in assay [2] (setting [4]).
The matching figures for `CN[C@@H]1[C@@H](O)[C@@H](O[C@@H]2[C@@H](O)[C@H](O[C@H]3OC(CN)=CC[C@H]3NCC(C)(C)CN(C)C)[C@@H](N)C[C@H]2NC(=O)[C@@H](O)CCN)OC[C@]1(C)O` [Example 94, 2′-(N,N-Dimethyl-2,2-dimethyl-3-amino-propyl)-1-(4-amino-2(S)-hydroxy-butyryl)-sisomicin]: 1 to 16 µg/mL (≈ 1.51 to 24.2 µM) and greater than 16 µg/mL.
The matching figures for `CN[C@@H]1[C@@H](O)[C@@H](O[C@@H]2[C@@H](O)[C@H](O[C@H]3OC(CN)=CC[C@H]3NC[C@H](C)N)[C@@H](N)C[C@H]2NC(=O)[C@@H](O)CCN)OC[C@]1(C)O` [Example 95, 2′-(2(S)-Amino-propyl)-1-(4-amino-2(S)-hydroxy-butyryl)-sisomicin]: less than 1 µg/mL and greater than 16 µg/mL.
Regarding `CN[C@@H]1[C@@H](O)[C@@H](O[C@@H]2[C@@H](O)[C@H](O[C@H]3OC(CN)=CC[C@H]3NC3CNC3)[C@@H](N)C[C@H]2NC(=O)[C@@H](O)CCN)OC[C@]1(C)O` [Example 96, 2′-(Azetidin-3-yl)-1-(4-amino-2(S)-hydroxy-butyryl)-sisomicin], the MIC in assay [1] (setting [5]) was less than 1 µg/mL; in assay [1] (setting [6]) it was less than 1 µg/mL; in assay [2] (setting [7]), 1 to 16 µg/mL (≈ 1.66 to 26.5 µM).
For `CN[C@@H]1[C@@H](O)[C@@H](O[C@@H]2[C@@H](O)[C@H](O[C@H]3OC(CN)=CC[C@H]3NCC(N)CO)[C@@H](N)C[C@H]2NC(=O)[C@@H](O)CCN)OC[C@]1(C)O` (stereo partly drawn) [Example 97, 2′-(2-Amino-propanol)-1-(4-amino-2(S)-hydroxy-butyryl)-sisomicin], the MIC in assay [1] (setting [3]) was less than 1 µg/mL. In addition, the “MIC APAE001” value in assay [2] (Table 1, APAE001 is ATCC27853) is given as “B (MIC's of greater than 1.0 μg/mL to 16.0 μg/mL = B)”.
As to `CN[C@@H]1[C@@H](O)[C@@H](O[C@@H]2[C@@H](O)[C@H](O[C@H]3OC(CN)=CC[C@H]3NCCO)[C@@H](N)C[C@H]2NC(=O)[C@@H](O)CCN)OC[C@]1(C)O` [Example 98, 2′-(2-Hydroxy-ethyl)-1-(4-amino-2(S)-hydroxy-butyryl)-sisomicin], the MIC in assay [1] (setting [3]) and in assay [2] (setting [4]) was 1 to 16 µg/mL (≈ 1.69 to 27 µM) in each case.
As to `CN[C@@H]1[C@@H](O)[C@@H](O[C@@H]2[C@@H](O)[C@H](O[C@H]3OC(CN)=CC[C@H]3NC(=O)C(N)CCCN)[C@@H](N)C[C@H]2NC(=O)[C@@H](O)CCN)OC[C@]1(C)O` (stereo partly drawn) [Example 99, 2′-(2,5-Diamino-pentoyl)-1-(4-amino-2(S)-hydroxy-butyryl)-sisomicin], the minimum inhibitory concentration (MIC) in assay [1] (setting [3]) and in assay [2] (setting [4]) was 1 to 16 µg/mL (≈ 1.51 to 24.1 µM) in each case.
For `CN[C@@H]1[C@@H](O)[C@@H](O[C@@H]2[C@@H](O)[C@H](O[C@H]3OC(CN)=CC[C@H]3NCC(O)CN)[C@@H](N)C[C@H]2NC(=O)[C@@H](O)CCN)OC[C@]1(C)O` (stereo partly drawn) [Example 101, 2′-(2-Hydroxy-3-amino-propyl)-1-(4-amino-2(S)-hydroxy-butyryl)-sisomicin], the minimal inhibitory concentration (MIC) in assay [1] (setting [3]) is less than 1 µg/mL; in assay [2] (setting [4]), 1 to 16 µg/mL (≈ 1.61 to 25.7 µM).
Taken in the same sequence, the figures for `CN[C@@H]1[C@@H](O)[C@@H](O[C@@H]2[C@@H](O)[C@H](O[C@H]3OC(CN)=CC[C@H]3NCCCCN)[C@@H](N)C[C@H]2NC(=O)[C@@H](O)CCN)OC[C@]1(C)O` [Example 102, 2′-(4-Amino-butyl)-1-(4-amino-2(S)-hydroxy-butyryl)-sisomicin] were less than 1 µg/mL and 1 to 16 µg/mL (≈ 1.61 to 25.8 µM).
As to `CN[C@@H]1[C@@H](O)[C@@H](O[C@@H]2[C@@H](O)[C@H](O[C@H]3OC(CN)=CC[C@H]3NC(=N)N)[C@@H](N)C[C@H]2NC(=O)[C@@H](O)CCN)OC[C@]1(C)O` [Example 103, 2′-Guanidinium-1-(4-amino-2(S)-hydroxy-butyryl)-sisomicin], the minimal inhibitory concentration (MIC) in assay [1] (setting [5]), in assay [1] (setting [6]) and in assay [2] (setting [7]) was less than 1 µg/mL each time.
For `CN[C@@H]1[C@@H](O)[C@@H](O[C@@H]2[C@@H](O)[C@H](O[C@H]3OC(CN)=CC[C@H]3NC[C@H]3C[C@H](N)C3)[C@@H](N)C[C@H]2NC(=O)[C@@H](O)CCN)OC[C@]1(C)O` [Example 104, 2′-(Methyl-trans-3-amino-cyclobutyl)-1-(4-amino-2(S)-hydroxy-butyryl)-sisomicin], the MIC is less than 1 µg/mL in assay [1] (setting [3]) and 1 to 16 µg/mL (≈ 1.58 to 25.3 µM) in assay [2] (setting [4]).
Taken in the same sequence, the figures for `CN[C@@H]1[C@@H](O)[C@@H](O[C@@H]2[C@@H](O)[C@H](O[C@H]3OC(CNC(=N)N)=CC[C@H]3NC(=N)N)[C@@H](N)C[C@H]2N)OC[C@]1(C)O` [Example 105, 6′,2′-bis-Guanidinium-sisomicin] were greater than 16 µg/mL and greater than 16 µg/mL.
Taken in the same sequence, the figures for `CN[C@@H]1[C@@H](O)[C@@H](O[C@@H]2[C@@H](O)[C@H](O[C@H]3OC(CNCCO)=CC[C@H]3NC(=N)N)[C@@H](N)C[C@H]2N)OC[C@]1(C)O` [Example 106, 6′-(2-Hydroxy-ethyl)-2′-guanidinium-sisomicin] were less than 1 µg/mL and 1 to 16 µg/mL (≈ 1.87 to 30 µM).
Taken in the same sequence, the figures for `CN[C@@H]1[C@@H](O)[C@@H](O[C@@H]2[C@@H](O)[C@H](O[C@H]3OC(CNC[C@H]4C[C@H](N)C4)=CC[C@H]3NC(=N)N)[C@@H](N)C[C@H]2N)OC[C@]1(C)O` [Example 107, 6′-(Methyl-trans-3-amino-cyclobutyl)-2′-guanidinium-sisomicin] were 1 to 16 µg/mL (≈ 1.75 to 27.9 µM) and less than 1 µg/mL.
As to `CNCC1=CC[C@@H](NC(=N)N)[C@@H](O[C@H]2[C@H](O)[C@@H](O[C@H]3OC[C@](C)(O)[C@H](NC)[C@H]3O)[C@H](N)C[C@@H]2N)O1` [Example 108, 6′-Methyl-2′-guanidinium-sisomicin], the minimal inhibitory concentration (MIC) in assay [1] (setting [3]) was less than 1 µg/mL; in assay [2] (setting [4]), 1 to 16 µg/mL (≈ 1.99 to 31.8 µM).
